As a reminder, the MBC is the lowest tested concentration that kills the bacteria rather than only halting them.

We go through two compounds from patent US4761414A, “Substituted 1H-pyrimido[1,2-a-]-pyrido[3,4-e]pyrazine 6 oxides” (G. D. Searle & Co., priority 1986, dated 1988).

In brackets after ≈: the same amount, converted by molar mass. Bounds are passed on as bounds.

Common to all, as to assay type: cell-based
In test [1] the test system is B. fragilis NCTC 10581. The experiment in a line: MIC/MBC against Bacteroides fragilis strain A (96-well microtitre plates, anaerobic chamber). Conditions: Bacteroides fragilis; for MBC: NCTC10581, 99.9% reduction in viable count; for MIC: NCTC10581, 48 h, 48 hours, 37° C., anaerobic.
Test [2] deals with B. fragilis NCTC 9343. The experiment in a line: MIC/MBC against Bacteroides fragilis strain B. To be noted: for MBC: NCTC9343, 99.9% reduction in viable count; for MIC: NCTC9343, 48 h, 48 hours, 37° C., anaerobic. The method, boiled down: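 Broth microdilution in Wilkens-Chalgren broth, final inoculum 10^5 cells/ml, incubated anaerobically (85% N2, 10% CO2, 5% H2) 48 hours at 37° C. MIC read visually as lowest concentration with no detectable growth; MBC by subculturing 50 μl from each well into fresh medium.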

Test [3] relates to B. fragilis MZ-R ATCC 11295. Description: MIC/MBC against Bacteroides fragilis strain D. Conditions: for MBC: ATCC11295, 99.9% reduction in viable count; for MIC: ATCC11295, 48 h, 48 hours, 37° C., anaerobic. Put shortly:
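B. fragilis grown in Wilkens-Chalgren broth; final inoculum 10^5 cells/ml with test compound dissolved in solvent such as DMSO, PEG 200 or methanol. Incubated 48 hours at 37 °C under anaerobic atmosphere (85% N2, 10% CO2, 5% H2). MIC read visually as lowest concentration with no detectable growth; MBC by subculturing 50 μl from each well into fresh medium.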

In test [4] the test system is B. fragilis WS-1. The experiment in a line: MIC/MBC against Bacteroides fragilis strain E. Conditions: for MBC: WS1, 99.9% reduction in viable count; for MIC: WS1, 48 h, 48 hours, 37° C., anaerobic. The method, boiled down: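 Anaerobic broth microdilution (Wilkens-Chalgren broth), final inoculum 10^5 cells/ml, 48 h at 37° C. under 85% N2/10% CO2/5% H2. MIC read visually as lowest concentration with no detectable growth; MBC from 50 μl aliquots of each well subcultured into fresh medium.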

Test [5] relates to Clostridium perfringens NCTC 523. Description: microbe, parasite or virus in culture. To be noted: Clostridium perfringens, NCTC523, Clostridium perfringens NCTC 523; procedures of Example 40.
The test system of test [6] is Clostridium perfringens NCTC 8237. Description: microbe, parasite or virus in culture. Conditions: Clostridium perfringens, NCTC8237, Clostridium perfringens NCTC 8237; procedures of Example 40.

Take `CC1(C)CN=C2C(c3ccc(F)cc3)=[N+]([O-])c3cccnc3N2C1` [Example 31, 2,3-Dihydro-2,2-dimethyl-5-(4-fluorophenyl)-1H-pyrimido[1,2-a]pyrido[3,2-e]pyrazine 6-oxide]: the MBC in test [1], in test [2], in test [3] and in test [4] was below 0.8 µg/mL in each case. In addition, the MIC in test [1] is below 0.8 µg/mL; in test [2], below 0.8 µg/mL; in test [3] it was below 0.8 µg/mL; in test [4], below 0.8 µg/mL; in test [5], 3.1 µg/mL (≈ 9.56 µM); in test [6], 12.5 µg/mL (≈ 38.5 µM).

`CC1CN=C2C(c3ccccc3)=[N+]([O-])c3cccnc3N2C1` (centres unmarked) [Example 32, 2,3-Dihydro-2-methyl-5-phenyl-1H-pyrimido[1,2-a]pyrido[3,2-e]pyrazine 6-oxide]: the MBC in test [1] is below 0.8 µg/mL; in test [2], 1.5 µg/mL (≈ 5.13 µM); in test [3], below 0.8 µg/mL; in test [4], below 0.8 µg/mL. Also, the MIC in test [1] was below 0.8 µg/mL; in test [2] it was 1.5 µg/mL (≈ 5.13 µM); in test [3] it was below 0.8 µg/mL; in test [4], below 0.8 µg/mL; in test [5], below 0.8 µg/mL; in test [6], 6.2 µg/mL (≈ 21.2 µM).
